Patent US20130288956A1, “COMBINED PHARMACEUTICAL COMPOSITION AS ANTIFUNGAL AGENT” (priority 2010, published 2013)

Legend:
C. albicans = experiment: In vitro combination effects, checkerboard method by micro dilution (FIC index); format: cell-based, Candida albicans; settings: C. albicans (20 strains); combination use with Test Compound 1
Method: (§1) A clinically isolated strain retained by the Medical Mycology Research Center of Chiba University (Code No. IFM) and a clinically isolated strain retained by the Life Science Research Center of Gifu University (Code No. E) were used as Candida and Aspergillus strains.
(§2) Fungus liquid obtained by static culturing at 35° C. for 48 hours in Sabouraud Dextrose liquid medium (SDB, Becton, Dickinson and Co.) was diluted with RPMI 1640 medium (Nissui Pharmaceutical Co., Ltd.) containing 0.165 M 3-(N-morpholino)propanesulfonic acid (MOPS) to prepare a fungus liquid having a fungus concentration of 1×10^3 cells/mL to 2×10^3 cells/mL.
(§3) Test Compound 1 (0.0005 μg/mL to 1.56 μg/mL) in the horizontal rows (12 wells) of a 96-well flat-bottom plate, and an antifungal agent in the form of ravuconazole (0.0015 μg/mL to 6.25 μg/mL), fluconazole (0.008 μg/mL to 32 μg/mL), voriconazole (0.0002 μg/mL to 8 μg/mL), micafungin (0.0005 μg/mL to 0.25 μg/mL), caspofungin (0.0005 μg/mL to 1 μg/mL) or amphotericin B (0.008 μg/mL to 8 μg/mL) in the vertical rows (8 wells) of the flat-bottom plate were prepared by diluting so as to blend together using RPMI 1640 medium containing 0.165 M MOPS to obtain a control group, a single Test Compound 1 group, each one of antifungal agents groups and combination groups of Test Compound 1+each one of antifungal agents.
(§4) The fungus liquids prepared in (1) were inoculated into the wells of 96-well flat-bottom plate containing 20 μL/well to 75 μL/well of the diluted test drug liquids prepared in (2) at 80 μL/well to 125 μL/well, followed by aerobically static culturing for 25 hours to 48 hours at 35° C.
(§5) Combination effects of Test Compound 1 and the antifungal agents were measured with the checkerboard method by micro dilution.
(§6) Interaction between both drugs was assessed by calculating the FIC index using the calculation formula indicated below.
(§7) The FIC index was calculated for each combination of antifungal agent concentrations that inhibited fungal growth, and the minimum value of the resulting FIC index was used as a combination FIC index.
(§8) A combination FIC index of 0.5 or less was evaluated as indicating synergistic action, that of 0.5 to 1 or less was evaluated as indicating additive action, and that of 1 to 4 or less was evaluated as indicating indifferent action.
(§9) FIC Index=(MIC value of drug A during combination use/MIC value of drug A when used alone)+(MIC value of drug B during combination use/MIC value of drug B when used alone) (Calculation Formula)

C. glabrata = experiment: as above; format: cell-based, Candida glabrata; settings: C. glabrata (10 strains); combination use with Test Compound 1
Method: as §1, §2, §3, §4, §5, §6, §7, §8, §9

C. tropicalis = experiment: as above; format: cell-based, Candida tropicalis; settings: C. tropicalis (10 strains); combination use with Test Compound 1
Method: as §1, §2, §3, §4, §5, §6, §7, §8, §9

[1] = tested on: A. flavus strain IFM50915; experiment: A. flavus respiratory tract infection model; format: in vivo, mice
Method: (§10) Female DBA/2N mice (age 8 weeks, Charles River Laboratories Japan, Inc.) were subcutaneously administered 200 mg/kg of 5-fluorouracil 5 or 6 days prior to infection in order to put the mice into a compromised state.
(§11) A. fumigatus strain IFM52108 and A. flavus strain IFM50915 were used.
A liquid containing spores of A. flavus strain IFM50915 stored at −80° C. was thawed, and the number of spores was counted using a hemocytometer followed by diluting with sterile physiological saline containing 0.05% Tween 80 to a concentration of 0.6×10^6 cells/mL to 1.0×10^6 cells/mL to obtain an inoculation fungus liquid.
(§12) 50 μl of inoculation fungus liquid were inoculated into the nasal cavities of 9-week-old mice at 0.3×10^5 cells/mouse to 1.25×10^5 cells/mouse under Ketalar anesthesia.
(§13) 0.1 mL to 0.2 mL of each drug solution (dissolved in sterile physiological saline or 5% glucose solution, or dissolved in sterile physiological saline or 5% glucose solution containing 6.5% dimethylsulfoxide and 3.5% Tween 80) was administered to the individual and combination dose groups either into the peritoneal cavity or into the stomach using a gastric cannula corresponding to the administration route of the drug for 3 to 4 days at the rate of 1 to 2 times per day starting 0.5 hours to 1 hour after inoculation of fungus.
(§14) There were 5 to 9 animals in each group.
(§15) Infection protection results were assessed on survival rate 14 days after infection.

[2] = tested on: A. fumigatus strain IFM52108; experiment: A. fumigatus respiratory tract infection model; format: in vivo, mice
Method: as §10, §11
A liquid containing spores of A. fumigatus strain IFM52108 stored at −80° C. was applied to Potato Dextrose agar medium (PDA, Eiken Chemical Co., Ltd.) followed by static culturing for 5 to 7 days at 35° C. and suspending in sterile physiological saline containing 0.05% Tween 80.
The number of spores was counted using a hemocytometer, and the liquid was diluted with sterile physiological saline containing 0.05% Tween 80 to a concentration of 1.2×10^6 cells/mL to 2.5×10^6 cells/mL to obtain an inoculation fungus liquid.
as §12, §13, §14, §15

In the case of OC(Cn1cncn1)(Cn1cncn1)c1ccc(F)cc1F [Fluconazole, fluconazole], the “Ratio indicating Additive effect of combination use with Test Compound 1” value (from here on “Ratio indicating Additive effect”) (C. albicans) is reported as 80%, the “Ratio indicating Antagonistic effect of combination use with Test Compound 1” value (“Ratio indicating Antagonistic effect” for short) (C. albicans) is reported as 0% and the “Ratio indicating Indifferent effect of combination use with Test Compound 1” value (“Ratio indicating Indifferent effect” for short) (C. albicans) is reported as 10%. For the same molecule, the “Ratio indicating Synergistic effect of combination use with Test Compound 1” value (“Ratio indicating Synergistic effect” below) (C. albicans) was 10%, the “Ratio indicating Additive effect” value (C. glabrata) was 90% and the “Ratio indicating Antagonistic effect” value (C. glabrata) was 0%. For the same molecule, the “Ratio indicating Indifferent effect” value (C. glabrata) was 10%, the “Ratio indicating Synergistic effect” value (C. glabrata) was 0% and the “Ratio indicating Additive effect” value (C. tropicalis) was 10%. For the same molecule, the “Ratio indicating Antagonistic effect” value (C. tropicalis) was 0%, the “Ratio indicating Indifferent effect” value (C. tropicalis) was 0% and the “Ratio indicating Synergistic effect” value (C. tropicalis) was 90%.

Nc1ncccc1-c1cc(Cc2ccc(COc3ccccn3)cc2)no1 [Test Compound 1, 3-(3-(4-(pyridin-2-yloxymethyl)-benzyl)-isoxazol-5-yl)-pyridin-2-ylamine] was tested, and the 14-day survival rate ([1]; Test Compound 1 5 mg/kg, Table 4 AMPH experiment) was 20%, the 14-day survival rate ([1]; Test Compound 1 5 mg/kg, Table 4 MCFG experiment) was 12.5% and the 14-day survival rate ([1]; Test Compound 1 5 mg/kg, Table 4 RVCZ experiment) was 20%. For the same molecule, the 14-day survival rate ([1]; Test Compound 1 8 mg/kg, Table 4 CSFG experiment) was 0%, the 14-day survival rate ([1]; Test Compound 1 10 mg/kg, Table 4 AMPH experiment) was 60% and the 14-day survival rate ([1]; Test Compound 1 10 mg/kg, Table 4 RVCZ experiment) was 60%. It also gave a 14-day survival rate ([1]; Test Compound 1 16 mg/kg, Table 4 CSFG experiment) of 80%, a 14-day survival rate ([2]; Test Compound 1 10 mg/kg, Table 3 MCFG experiment) of 0% and a 14-day survival rate ([2]; Test Compound 1 10 mg/kg, Table 3 RVCZ experiment) of 0%. For the same molecule, the 14-day survival rate ([2]; Test Compound 1 10 mg/kg, Table 3 VRCZ experiment) was 40%, the 14-day survival rate ([2]; Test Compound 1 20 mg/kg, Table 3 MCFG experiment) was 20% and the 14-day survival rate ([2]; Test Compound 1 20 mg/kg, Table 3 RVCZ experiment) was 20%. The 14-day survival rate ([2]; Test Compound 1 20 mg/kg, Table 3 VRCZ experiment) was 40%.

Work on Nc1c(-c2cc(Cc3ccc(COc4ccccn4)cc3)no2)ccc[n+]1COP(=O)([O-])O [Test Compound 2, 2-amino-1-((phosphonooxy)methyl)-3-(3-((4-((2-pyridinyloxy)methyl)phenyl)methyl)-5-isoxazolyl)-pyridinium] yielded a 14-day survival rate ([1]; Test Compound 2 2.5 mg/kg, Table 5 CSFG experiment) of 0%, a 14-day survival rate ([1]; Test Compound 2 5 mg/kg, Table 5 CSFG experiment) of 50% and a 14-day survival rate ([1]; Test Compound 2 5 mg/kg, Table 5 L-AmB experiment) of 0%. It also gave a 14-day survival rate ([1]; Test Compound 2 5 mg/kg, Table 5 MCFG experiment) of 22.2% and a 14-day survival rate ([1]; Test Compound 2 10 mg/kg, Table 5 MCFG experiment) of 55.6%.
